Test results from patent publication US11892406B2, “Method and device for assaying the interaction and dynamics of permeation of a molecule and a lipid bilayer” (DUBLIN CITY UNIVERSITY, priority 2018, dated 2024).

Assays:
Type in all cases: in vitro ADME
[1] = Metal enhanced fluorescence permeation assay, DOPC bilayer spanned over gold microcavity array
Procedure: (§1) Following removal of PS spheres, if in place, washing and aqueous filling of the array a Langmuir monolayer of lipids was spread across the micropore array, using either a Model 102M, LB trough or Model KN2006 from KSV-NIMA technology, LB alternate. The lipid mixture (across single or diverse lipid compositions) was prepared in chloroform at a concentration of 1 mg/ml. 50 μL of this solution was suspended on the water sub-phase. Fifteen minutes were allocated for evaporation of the solvent, prior to lipid monolayer compression. […]
(§2) A Horiba Labram HR instrument was used for both Raman and fluorescence measurements using a 50× long distance magnification objective (Leica). The wavelengths were typically 473 nm and 785 nm were used for fluorescence measurements and Raman measurements respectively. […] Typically a 1% neutral density filter and 300 μm slit were used for fluorescence and no filter for Raman. […]
(§3) For drug/molecular diffusion studies, drug solutions were prepared as stock solutions for introduction into the bilayer contacting solution dissolved in PBS or Tris buffer at concentrations that permitted final concentrations (on contact with the bilayer buffer) of 1 nM to several millimolar. […] Drug diffusion samples were analysed by first obtaining a bilayer spectra while sample is immersed in PBS. […]

[2] = Metal enhanced fluorescence permeation assay, ternary domain forming lipid bilayer on gold microcavity array; details: 0.1 mM
Procedure: as §1, §2, §3

[3] = SERS permeation assay, DOPC lipid bilayer suspended over gold cavity array; details: 1 um gold array, PBS buffer, 785 nm
Procedure: as §1, §2, §3

COc1cccc2c1C(=O)c1c(O)c3c(c(O)c1C2=O)C[C@@](O)(C(=O)CO)C[C@@H]3O[C@H]1C[C@H](N)[C@H](O)[C@H](C)O1 [Doxorubicin]
permeation through DOPC bilayer (fluorescent peak area at 600 nm vs time) ([1]; 0.1 mM, 2-hour monitoring, 1 μm diameter gold array): diffusing through the bilayer

COc1cccc2c1C(=O)c1c(O)c3c(c(O)c1C2=O)C[C@@](O)(C(C)=O)C[C@@H]3O[C@H]1C[C@H](N)[C@H](O)[C@H](C)O1 [Duanorubicin]
permeability of ternary lipid bilayer to the drug ([2]; 2-hour window, two replicate measurements, DOPC:SM:Chol 40:40:20): impermeable | time for emission to reach steady state ([2]; unstirred solution, ternary bilayer): less than 20 mins

CC(C)Cc1ccc(C(C)C(=O)O)cc1 (centres unmarked) [Ibuprofen]
permeability across DOPC bilayer (dynamics of evolution of SERS signal, presence vs absence of bilayer) [3]: passively permeable

[Ru+2].c1ccc(-c2ccccn2)nc1.c1ccc(-c2ccccn2)nc1.c1ccc(-c2ccccn2)nc1 [[Ru(bpy)3[ complex]
membrane permeability at DOPC bilayers (second emission rise and plateau) ([1]; DOPC bilayers, fluorescence): impermeable
